Reference: patent publication US10231907B2, “Compositions for improving the health and appearance of skin” (Algenist Holdings, Inc., priority 2006, dated 2019)

Legend:
[1] = tested on: MatTek EpiDerm® skin model (normal human-derived epidermal keratinocytes); assay: TT dimer-UV exposure assay in MatTek EpiDerm skin model; format: cell-based; settings: 1 mM, UVB 300 mJ/cm^2, mean ± SD
Description: TT dimer-UV exposure assay: The testing system used for this assay was the MatTek EpiDerm®, a skin model that consists of normal human-derived epidermal keratinocytes cultured to form a multilayered, highly differentiated model of the human epidermis. For this study, the tissues were treated topically overnight with either test materials, 1 mM Trolox (positive control), or left untreated (negative control). On the following day, the tissues were exposed to UVB (300 mJ/cm^2). Following the exposures the DNA was extracted from the EpiDerm tissues and assayed for thymine dimer content. Samples of the DNA were immobilized on a solid membrane support and incubated with an antibody that recognizes thymidine dimers in double stranded DNA. The primary antibody was detected using a secondary antibody conjugated to an alkaline phosphatase enzyme followed by the addition of a substrate that the alkaline phosphatase enzyme uses to generate a chemiluminescent signal. The light generated by this reaction was captured using film with the intensity of the light signal being proportional to the amount of the thymine dimers present in the sample. Test material BM was Porphyridium sp. biomass that had been homogenized with a Microfluidizer® twice and then lyophilized. […] Extracted DNA was quantified via a fluorometric assay. […]

[2] = tested on: Porphyridium sp. and Porphyridium cruentum; assay: Antibiotic sensitivity on agar plates; format: cell-based; settings: 14 days
Description: Approximately […] cells (300 ul of 1.5×10^5 cells per ml) of Porphyridium sp. and Porphyridium cruentum cultures in liquid ATCC 1495 ASW media were plated onto ATCC 1495 ASW agar plates (1.5% agar). The plates contained varying amounts of zeocin, sulfometuron, hygromycin and spectinomycin. The plates were put under constant artificial fluorescent light of approximately 480 lux. After 14 days, plates were checked for growth.

Fibroblasts = assay: Procollagen synthesis (type I C-peptide ELISA) in fibroblast culture; format: cell-based, human; settings: 4 mM, 48 hours, mean ± SD
Text: A fibroblast cell culture model was used to assess the ability of the polysaccharide from Porphyridium to exert an effect on procollagen synthesis. Fibroblasts are the main source of the extracelluar matrix peptides, including the structural protein collagen. Procollagen is a large peptide synthesized by fibroblasts in the dermal layer of the skin and is the precursor for collagen. As the peptide is processed to form a mature collagen protein, the propeptide portion is cleaved off (type I C-peptide). Both the mature collagen protein and the type I C-peptide fragment are then released into the extracellular environment. As collagen is synthesized the type I C-peptide fragment accumulates into the tissue culture medium. Since there is a 1:1 stoichiometric ratio between the two parts of the procollagen peptide, assaying for type I C-peptide reflects the amount of collagen synthesized. […]
A series of type I C-peptide standards was prepared ranging from 0 ng/ml to 640 ng/ml. […] After the incubation 100 μl of stop solution (1 N sulfuric acid) was added to each well and the plate was read using a microplate reader at 450 nm.
To quantify the amount of procollagen present, a standard curve was generated using known concentrations of procollagen. […] Absorbance values for the test and positive control samples was used to determine the amount of procollagen present. […]

hyaluronidase = assay: Anti-hyaluronidase assay (bHA-coated 96-well plate); format: biochemical; settings: 0.1%
Description: Biotinylated hyaluronic acid (bHA) was covalently attached to the wells of a 96-well plate. Samples containing hyaluronidase and various test materials were then added to the wells. The hyaluronidase degrades the bound hyaluronic acid, resulting in a decrease in the amount of biotin covalently linked to the well plate. At the end of the incubation period the reaction was stopped and the well plate was washed to remove the hyaluronidase. The remaining bHA was detected using an avidin bound peroxidase enzyme. When an appropriate substrate is added, the peroxidase enzyme generated a color signal in proportion to the amount of bHA. The color signal was measured spectrophotometrically, and was inversely proportional to the amount of hyaluronidase activity in the sample. […] Also see Frost, G. I., Stern, R. A Microtiter-Based Assay for Hyaluronidase Activity Not Requiring Specialized Reagents. Analytical Biochemistry 251, 263-269: 1997. […]
During the 30 minute incubation, an avidin/biotin-peroxidase complex was prepared in 10.5 ml of PBS containing 0.1% Tween 20 using an ABC kit. […] The plate was incubated in the dark for 10-20 minutes and then read at 460 nm using a plate reader. The substrate solution was also added to three wells that were not treated with test materials or the avidin/biotin-peroxidase solution and were used as a blank for the absorbance measurements. […]

With `Cc1c(C)c2c(c(C)c1O)CCC(C)(C(=O)O)O2` (stereo not drawn) [Trolox] the “Optical Density (thymidine dimer)” value [1] was 107 ± 1 optical density units.

In the case of `CN[C@@H]1[C@H](O)[C@H](NC)[C@H]2O[C@@]3(O)C(=O)C[C@@H](C)O[C@H]3O[C@@H]2[C@H]1O` [Specinomycin], the Growth ([2]; 100.0 ug/ml) was “+ + + +”, the Growth ([2]; 250.0 ug/ml) was “+ + + +” and the Growth ([2]; 750.0 ug/ml) was “+ + + +”.

For `CCCC(=O)[O-].[Na+]` [Na Butyrate, sodium butyrate], the “Type I C-Peptide” value (Fibroblasts) was 1425 ± 81 ng/mL.

For heparin, the “Percent Inhibition” value (hyaluronidase) was 74%.
